According to PMC5940854, “Nitrothiophene carboxamides, a novel narrow spectrum antibacterial series: Mechanism of action and Efficacy” (Scientific Reports, 2018):
Converted amounts (≈) assume the structure as drawn.

What was measured:
[1] = tested on: E. coli ∆acrB JW0451-2; experiment: Neutropenic thigh infection, E. coli ∆acrB; assay type: in vivo, BALB/c mice
[2] = tested on: E. coli BW25113; experiment: Neutropenic thigh infection, E. coli BW25113; assay type: in vivo, BALB/c mice; conditions: Study TI-2014-008, BW25113, 100mg/kg per oral
[3] = tested on: E. coli clinical isolates; experiment: MIC on panel of E. coli clinical isolates; assay type: cell-based
[4] = tested on: ATCC25922; experiment: MIC on E. coli ATCC25922; assay type: cell-based; conditions: strain ATCC25922
Procedure: The inoculum used for all the experiments is derived from a single seed lot that is maintained as glycerol stocks at −80 °C and are sub cultured on LB plate for isolated colonies. Single colony of each strain is grown in M9 medium. All test compound stocks and dilutions are prepared in DMSO. Serial two-fold dilutions of compounds are prepared separately, with the concentrations ranging from 2 mg/mL to 0.015 mg/mL. To 150 µl (3–7 × 10^5 CFU/ml) of bacterial culture in 96 well microtitre plates, 3 μL compound from each of the dilutions is added to respective wells to obtain final concentrations ranging from 40 µg/mL to 0.3 µg/mL of the test compounds. Media control, culture control and appropriate reference drug controls are included. […] Growth is monitored by checking absorbance at 600 nm (A600). […] The samples from MIC and above concentrations are plated for MBC (Minimum Bactericidal Concentration). The samples are diluted 1:10 and plated on LB agar plates. […] The killing kinetics is determined by enumerating survivors at various time points following compound exposure. E. coli cells (~10^7 CFU/ml; A600 of 0.1) are treated with various concentrations (40 µg/mL to 0.3 µg/mL) of compounds in a 96-well microtitre plate. At various time intervals (0 to 8 h), 30 μl volumes of treated cultures are serially diluted and plated on LB agar plates. […] Data is expressed as the log10 CFU for each drug treatment.

O=C(O)c1cn(C2CC2)c2cc(N3CCNCC3)c(F)cc2c1=O [ciprofloxacin, reference compound]
Log10CFU Mean Diff. vs. Untreated Controls ([1]; Study TI-2014-007, ∆acrB JW0451-2, 100mg/kg per oral, 6 hours post treatment): 3.477 Log10CFU
Log10CFU Mean Diff. vs. Untreated Controls ([1]; Study TI-2014-008, ∆acrB JW0451-2, 100mg/kg per oral): 3.098 Log10CFU
Log10CFU Mean Diff. vs. Untreated Controls [2]: 3.212 Log10CFU

CNC(C)C1CCC(N)C(OC2C(N)CC(N)C(OC3OCC(C)(O)C(NC)C3O)C2O)O1 (centres unmarked) [gentamicin, reference compound]
MIC50 ([3]; Escherichia coli, 75 E.coli clinical isolates, 50% clinical isolates): 16 mg/L (≈ 33.5 µM)
MIC90 ([3]; Escherichia coli, 75 E.coli clinical isolates, 90% clinical isolates): > 64 mg/L
MIC ([3]; strain SEC001): > 64 mg/L
MIC ([3]; strain SEC002): 4 mg/L (≈ 8.38 µM)
MIC ([3]; strain SEC003): > 64 mg/L
MIC ([3]; strain SEC004): 4 mg/L (≈ 8.38 µM)
MIC ([3]; strain SEC005): > 64 mg/L
MIC ([3]; strain SEC006): 4 mg/L (≈ 8.38 µM)
MIC ([3]; strain SEC007): > 64 mg/L
MIC ([3]; strain SEC008): > 64 mg/L
MIC ([3]; strain SEC011): > 64 mg/L
MIC ([3]; strain SEC012): 4 mg/L (≈ 8.38 µM)
MIC ([3]; strain SEC013): > 64 mg/L
MIC ([3]; strain SEC014): > 64 mg/L
MIC ([3]; strain SEC015): > 64 mg/L
MIC ([3]; strain SEC016): 4 mg/L (≈ 8.38 µM)
MIC ([3]; strain SEC017): > 64 mg/L
MIC ([3]; strain SEC018): 0.5 mg/L (≈ 1.05 µM)
MIC ([3]; strain SEC019): > 64 mg/L
MIC ([3]; strain SEC020): 2 mg/L (≈ 4.19 µM)
MIC ([3]; strain SEC021): > 64 mg/L
MIC ([3]; strain SEC022): > 64 mg/L
MIC ([3]; strain SEC023): 4 mg/L (≈ 8.38 µM)
MIC ([3]; strain SEC024): > 64 mg/L
MIC ([3]; strain SEC025): > 64 mg/L
MIC ([3]; strain SEC026): 2 mg/L (≈ 4.19 µM)
MIC ([3]; strain SEC028): 2 mg/L (≈ 4.19 µM)
MIC ([3]; strain SEC029): 4 mg/L (≈ 8.38 µM)
MIC ([3]; strain SEC031): > 64 mg/L
MIC ([3]; strain SEC032): 4 mg/L (≈ 8.38 µM)
MIC ([3]; strain SEC033): > 64 mg/L
MIC ([3]; strain SEC034): 2 mg/L (≈ 4.19 µM)
MIC ([3]; strain SEC035): > 64 mg/L
MIC ([3]; strain SEC036): 4 mg/L (≈ 8.38 µM)
MIC ([3]; strain SEC037): 4 mg/L (≈ 8.38 µM)
MIC ([3]; strain SEC038): 4 mg/L (≈ 8.38 µM)
MIC ([3]; strain SEC039): 2 mg/L (≈ 4.19 µM)
MIC ([3]; strain SEC040): 32 mg/L (≈ 67 µM)
MIC ([3]; strain SEC041): 4 mg/L (≈ 8.38 µM)
MIC ([3]; strain SEC042): > 64 mg/L
MIC ([3]; strain SEC043): > 64 mg/L
MIC ([3]; strain SEC044): > 64 mg/L
MIC ([3]; strain SEC045): 4 mg/L (≈ 8.38 µM)
MIC ([3]; strain SEC046): 4 mg/L (≈ 8.38 µM)
MIC ([3]; strain SEC047): > 64 mg/L
MIC ([3]; strain SEC048): 4 mg/L (≈ 8.38 µM)
MIC ([3]; strain SEC049): 4 mg/L (≈ 8.38 µM)
MIC ([3]; strain SEC050): > 64 mg/L
MIC ([3]; strain SEC051): 2 mg/L (≈ 4.19 µM)
MIC ([3]; strain SEC052): 2 mg/L (≈ 4.19 µM)
MIC ([3]; strain SEC053): > 64 mg/L
MIC ([3]; strain SEC054): 8 mg/L (≈ 16.8 µM)
MIC ([3]; strain SEC055): 2 mg/L (≈ 4.19 µM)
MIC ([3]; strain SEC057): 4 mg/L (≈ 8.38 µM)
MIC ([3]; strain SEC058): 4 mg/L (≈ 8.38 µM)
MIC ([3]; strain SEC059): 2 mg/L (≈ 4.19 µM)
MIC ([3]; strain SEC060): 32 mg/L (≈ 67 µM)
MIC ([3]; strain SEC061): > 64 mg/L
MIC ([3]; strain SEC062): 8 mg/L (≈ 16.8 µM)
MIC ([3]; strain SEC063): 0.5 mg/L (≈ 1.05 µM)
MIC ([3]; strain SEC064): > 64 mg/L
MIC ([3]; strain SEC065): > 64 mg/L
MIC ([3]; strain SEC067): 4 mg/L (≈ 8.38 µM)
MIC ([3]; strain SEC068): > 64 mg/L
MIC ([3]; strain SEC069): > 64 mg/L
MIC ([3]; strain SEC070): > 64 mg/L
MIC ([3]; strain SEC071): 32 mg/L (≈ 67 µM)
MIC ([3]; strain SEC072): > 64 mg/L
MIC ([3]; strain SEC073): > 64 mg/L
MIC ([3]; strain SEC074): > 64 mg/L
MIC ([3]; strain SEC075): > 64 mg/L
MIC ([3]; strain SEC076): 4 mg/L (≈ 8.38 µM)
MIC ([3]; strain SEC077): 16 mg/L (≈ 33.5 µM)
MIC ([3]; strain SEC078): > 64 mg/L
MIC ([3]; strain SEC079): > 64 mg/L
MIC ([3]; strain SEC080): 4 mg/L (≈ 8.38 µM)
MIC [4]: 2 mg/L (≈ 4.19 µM)
